Test results: patent publication US10100198B2, “Application of reduced dyes in imaging” (LI-COR, Inc., priority 2011, dated 2018)
“And” between values parts separate entries of the source, which are not always exact repeats. Identical values can stand only once.

How the values were obtained:
[1] = target: T1, goat anti-mouse HRP-labeled antibody (GAM-HRP) (Armoracia rusticana, UniProt P00433); experiment: H-IR 780 / D-IR 780 as HRP substrate with HRP-labeled antibody in 96-well plate; type: biochemical, horseradish; conditions: 10 μM substrate, HRP 800 Assay Buffer pH 3.0, 10 minutes ambient temperature, Odyssey 800 nm channel
T1 sequence (P00433 31-338 limits assumed): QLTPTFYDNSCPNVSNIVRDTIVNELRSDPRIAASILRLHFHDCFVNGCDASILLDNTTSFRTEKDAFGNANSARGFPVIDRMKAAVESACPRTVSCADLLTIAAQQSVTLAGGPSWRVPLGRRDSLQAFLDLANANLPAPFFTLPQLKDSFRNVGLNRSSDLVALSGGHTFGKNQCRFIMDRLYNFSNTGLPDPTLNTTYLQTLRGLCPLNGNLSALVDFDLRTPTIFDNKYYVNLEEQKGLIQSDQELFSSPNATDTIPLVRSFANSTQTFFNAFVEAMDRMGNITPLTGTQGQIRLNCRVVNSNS
From the text: Reduced hydrocyanine dyes (H- or D-versions) are nonfluorescent, but turn fluorescent upon oxidation. This activation property was exploited to utilize the reduced hydrocyanine dyes as horseradish peroxidase (HRP) substrates. In certain embodiments of an enzymatic assay, the hydrocyanines can be oxidized by HRP using hydrogen peroxide as the oxidizing agent, yielding a fluorescent signal. In some preferred embodiments, this fluorescent signal's wavelength can range from 530-900 nm depending on the structure of the dye.
HRP 800 Assay Buffer: The HRP 800 Assay Buffer contains 60 μM Hydrogen Peroxide, 0.2 μg/mL Acetanilide, 0.02% Triton X−100, in 100 mM Citrate Buffer, pH 3.0.
H-IR 780 Substrate solution: 10 μM H-IR 780 in the HRP 800 Assay Buffer.
D-IR 780 Substrate solution: 10 μM D-IR 780 in the HRP 800 Assay Buffer.
The utility of the H-IR 780 and D-IR 780 as a HRP substrate was tested by reaction of the dye with an enzyme-labeled antibody. The substrate, when oxidized by HRP and hydrogen peroxide, yields a fluorescent signal at approximately 800 nm in the NIR. […] Wells B12, C12 and D12 received 10 μL of PBS buffer (pH 7.2) and were used as a control to measure the background fluorescence. […]

[2] = system: ROS generation in RAW264.7 macrophages; experiment: Imaging LPS-induced ROS generation in RAW264.7 macrophages by fluorescence microscope; type: cell-based, mouse; conditions: RAW264.7 cells, 5 μM hydrocyanines, 30 min
[3] = Cell permeability of reduced dyes; type: in vitro ADME
[4] = Water solubility of reduced dyes; type: physicochemical
[5] = system: β actin in A431 lysate; experiment: Western blot detection with chemifluorescent substrates, A431 lysate probed with mouse anti-β actin and HRP goat anti-mouse antibodies; parameters: species or system Human
From the text: Use of H-IR780F2 and H-IRDye® 800CW for blot imaging was compared to a commercially-available 680 HRP ELISA substrate (see FIG. 15). 4-12% Bis-Tris gels were loaded with 2-fold, 7-point serial dilutions of A431 lysate (high conc.=[…]), electrophoresed, transferred to Odyssey Nitrocellulose, blocked with SeaBlock Blocking Buffer (with ProClin preservative). The blots were probed with mouse anti-β actin antibodies, followed by HRP goat anti-mouse antibodies (FIG. 15, A-D) or dye-conjugated goat anti-mouse antibodies (FIG. 15, E-F). Blots probed with HRP goat anti-mouse antibodies were incubated for 5 min with chemifluorescent substrates in buffer containing hydrogen peroxide. H-IRDye® 800CW and H-IR780F2 were tested at 10 μM with 50-200 μM H2O2. HRP 680 ELISA substrate was used according to published protocols (i.e., LI-COR product no. 926-34300).
The basic workflow remains unchanged and therefore, the chemifluorescent substrate based analysis is amenable to other methods of protein analysis, such as ELISAs and protein arrays.

[6] = UV/vis absorption and emission; type: physicochemical; conditions: for Extinction Coefficient: in M-1·cm-1 (unit assumed)
Procedure: Compound 1 (80 mg), 3-(4-carboxybutyl)phenylboronic acid (40 mg), and cesium carbonate (20 mg) are stirred into 1:1 water:ethanol (10 ml) under nitrogen at room temperature. Tetrakis(triphenylphosphine)palladium(0) (10 mg) is added to the reaction mixture. The mixture was refluxed for 4 hours, and the solvent and volatile compounds are evaporated under vacuum. The crude product is purified by flash chromatography on reverse-phase C18-functionalized silica by eluting with a 1:4 acetonitrile:water mixture. The purified product 3 has UV/vis absorption max of λMeOH=680 nm, ε=229,000; λPBS=676 nm, ε=239,000.
Compound 7 (80 mg), 3-(2-carboxyethyl)phenylboronic acid (40 mg), and cesium carbonate (20 mg) were stirred into water (20 mL) under nitrogen at room temperature. Tetrakis(triphenylphosphine)palladium (0) (10 mg) were added to the reaction mixture. The mixture was refluxed for 4 h, and the solvent and volatile compounds then were evaporated under vacuum. The crude product was purified by flash chromatography on reverse-phase silica with an acetonitrile/water mixture as the eluent. The purified compound had λMeOH=680 nm, λPBS=672 nm, ε=160,000.

[7] = target: T2, HRP (Armoracia rusticana, UniProt P00433); experiment: 800 HRP substrate test of DIR780F2-P, with and without enzyme, varied pH and Triton X-100; type: biochemical, horseradish; conditions: two hours at ambient temperature
T2 sequence (P00433 31-338): T1 sequence (P00433 31-338 limits assumed)
From the text: Their efficacies as 800 HRP substrates have been tested in the ELISA format.

SMILES: CCCN1/C(=C/C=C2\CCCC(/C=C/C3N(CCC)c4ccccc4C3(C)C)=C2Cl)C(C)(C)c2ccccc21 (stereo not drawn) [H-IR 780]
- fluorescence signal at approximately 800 nm versus GAM-HRP concentration [1]: intensity of the fluorescence signal increased with increasing concentration of GAM-HRP

SMILES: CCCN1/C(=C/C=C/C2N(CCC)c3ccccc3C2(C)C)C(C)(C)c2ccccc21 (stereo not drawn) [H-Cy3]
- fluorescent intensity in LPS treated cells compared to untreated cells [2]: increased fluorescent intensity in the LPS treated cells compared to the untreated cells

SMILES: CC1(C)\C(=C/C=C(Br)/C=C/C2N(CCCCCCO)c3ccc4ccccc4c3C2(C)C)N(CCCCCCO)c2ccc3ccccc3c21 (stereo not drawn) [H-IR680DIOL]
- cell permeability [3]: cell permeable
- water solubility [4]: improved water solubility

SMILES: CCCN1/C(=C/C=C2\CCCC(/C=C/C3N(CCC)c4ccccc4C3(C)C)=C2c2cccc(F)c2F)C(C)(C)c2ccccc21 (stereo not drawn) [H-IR780F2]
- fluorescent intensity in LPS treated cells compared to untreated cells [2]: increased fluorescent intensity in the LPS treated cells compared to the untreated cells
- Western blot signal, background and linearity ([5]; 10 μM substrate, 50-200 μM H2O2, 5 min incubation): good signal with high linearity for lower signals and moderate linearity for higher signals
- Lower Limit of Detection (LLD) ([5]; Western blots): 1.5 ng
- sensitivity compared to chemiluminescent detection (luminol-based reagent system) ([5]; Western blots): 32 fold
- sensitivity compared to fluorescent dye-conjugated secondary antibody detection ([5]; Western blots): 16 fold

SMILES: CC1(C)\C(=C/C=C(Br)/C=C/C2N(CCCCCCO)c3ccccc3C2(C)C)N(CCCCCCO)c2ccccc21 (stereo not drawn) [H-IR650DIOL, 6-((E)-2-((2Z,4E)-3-bromo-5-(1-(6-hydroxyhexyl)-3,3-dimethylindolin-2-yl)penta-2,4-dien-1-ylidene)-3,3-dimethylindolin-1-yl)hexan-1-ol]
- cell permeability [3]: cell permeable
- water solubility [4]: improved water solubility

SMILES: CC1(C)C(/C=C/C(=C/C=C2/N(CCCS(=O)(=O)[O-])c3ccc(S(=O)(=O)[O-])cc3C2(C)C)c2cccc(CCC(=O)O)c2)=Nc2c1cc(Cl)c[n+]2CCCS(=O)(=O)[O-].[Na+].[Na+] [Compound 8, Sodium (E)-2-((2Z,4E)-3-(3-(2-Carboxyethyl)phenyl)-5-(5-chloro-3,3-dimethyl-7-(3-sulfonatopropyl)-3H-pyrrolo[2,3-b]pyridin-7-ium-2-yl)penta-2,4-dienylidene)-3,3-dimethyl-1-(3-sulfonatopropyl)indoline-5-sulfonate]
- Max. Abs. ([6]; MeOH): 680 nm
- Max. Emis. ([6]; MeOH): 694 nm
- Extinction Coefficient ([6]; MeOH): 170,000
- Max. Abs. ([6]; PBS): 672 nm
- Max. Emis. ([6]; PBS): 694 nm
- Extinction Coefficient ([6]; PBS): 160,000

SMILES: [2H]C1(C=CC2=C(c3cccc(F)c3F)C(=CC=C3N(CCC)c4ccccc4C3(C)C)CCC2)N(CCC)c2ccccc2C1(C)C (stereo not drawn) [DIR780F2-P]
- +Enzyme signal ([7]; pH 5, Triton X-100 0.01%): 111403 and 107251 and 95434 and 93017
- Mean Background ([7]; pH 5, Triton X-100 0.01%): 17016
- Mean Signal ([7]; pH 5, Triton X-100 0.01%): 101776
- Signal-Background ([7]; pH 5, Triton X-100 0.01%): 84761
- −Enzyme signal ([7]; pH 5, Triton X-100 0.01%): 14729 and 17889 and 16731 and 18713
- +Enzyme signal ([7]; pH 5, Triton X-100 0.05%): 110308 and 116984 and 91720 and 95384
- Mean Background ([7]; pH 5, Triton X-100 0.05%): 16011
- Mean Signal ([7]; pH 5, Triton X-100 0.05%): 103599
- Signal-Background ([7]; pH 5, Triton X-100 0.05%): 87588
- −Enzyme signal ([7]; pH 5, Triton X-100 0.05%): 15096 and 16995 and 15697 and 16257
- +Enzyme signal ([7]; pH 5, Triton X-100 0.1%): 86168 and 78778 and 79940 and 81063
- Mean Background ([7]; pH 5, Triton X-100 0.1%): 14716
- Mean Signal ([7]; pH 5, Triton X-100 0.1%): 81487
- Signal-Background ([7]; pH 5, Triton X-100 0.1%): 66771
- −Enzyme signal ([7]; pH 5, Triton X-100 0.1%): 14612 and 15268 and 14653 and 14330
- +Enzyme signal ([7]; pH 6, Triton X-100 0.01%): 65943 and 71002 and 70952 and 72922
- Mean Background ([7]; pH 6, Triton X-100 0.01%): 13218
- Mean Signal ([7]; pH 6, Triton X-100 0.01%): 70205
- Signal-Background ([7]; pH 6, Triton X-100 0.01%): 56987
- −Enzyme signal ([7]; pH 6, Triton X-100 0.01%): 12646 and 15381 and 12242 and 12600
- +Enzyme signal ([7]; pH 6, Triton X-100 0.05%): 72420 and 71667 and 65401 and 73540
- Mean Background ([7]; pH 6, Triton X-100 0.05%): 15498
- Mean Signal ([7]; pH 6, Triton X-100 0.05%): 70757
- Signal-Background ([7]; pH 6, Triton X-100 0.05%): 55259
- −Enzyme signal ([7]; pH 6, Triton X-100 0.05%): 16006 and 17026 and 14644 and 14316
- +Enzyme signal ([7]; pH 6, Triton X-100 0.1%): 73669 and 63411 and 72029 and 67718
- Mean Background ([7]; pH 6, Triton X-100 0.1%): 17956
- Mean Signal ([7]; pH 6, Triton X-100 0.1%): 69207
- Signal-Background ([7]; pH 6, Triton X-100 0.1%): 51251
- −Enzyme signal ([7]; pH 6, Triton X-100 0.1%): 21194 and 15983 and 19749 and 14897

SMILES: CC1(C)C(/C=C/C(=C/C=C2/N(CCCS(=O)(=O)[O-])c3ccc4c(S(=O)(=O)[O-])cc(S(=O)(=O)[O-])cc4c3C2(C)C)c2cccc(CCCCC(=O)O)c2)=[N+](CCCS(=O)(=O)[O-])c2ccc3c(S(=O)(=O)[O-])cc(S(=O)(=O)[O-])cc3c21.[Na+].[Na+].[Na+].[Na+].[Na+] [Compound 3, Sodium 2-((1E,3Z,5E)-3-(3-(4-Carboxybutyl)phenyl)-5-(1,1-dimethyl-6,8-disulfonato-3-(3-sulfonatopropyl)-1H-benzo[e]indol-2(3H)-ylidene)penta-1,3-dienyl)-1,1-dimethyl-3-(3-sulfonatopropyl)-1H-benzo[e]indolium-6,8-disulfonate]
- Max. Abs. ([6]; MeOH): 680 nm
- Extinction Coefficient ([6]; MeOH): 229,000
- Max. Abs. ([6]; PBS): 676 nm
- Extinction Coefficient ([6]; PBS): 239,000
